Assay results taken from patent publication US20240374535A1, “COMPOSITIONS AND METHODS FOR TREATING BIOFILM DISORDERS AND INFECTIONS” (AHV International B.V., priority 2021, published 2024).

Legend:
[1] = system: Pseudomonas aeruginosa ATCC 27853; test: MIC assay (planktonic growth inhibition, OD600); type: cell-based, P. aeruginosa; settings: Pseudomonas aeruginosa, ATCC27853, 24 h at 37° C.
Method: (§1) The exact weighed amount was noted and the volume of solvent to reach a 80 mM dilution calculated. Half of the volume was added first, by adding Tween 80. In a second step, the other half of the volume DMSO was added and the closed tube inverted 5-10 times and then vortexed very thoroughly for at least 30 seconds. If after this procedure unsolved material was still visible, the tube was placed in a shaker at 37° C. at 150 rpm for at least 30 minutes. […] For the MBEC assay (method 1.3) the solution needs to be diluted to a final concentration of 2 mM in 0.9% saline solution and then further diluted to 1 mM, 0.5 mM, 0.25 mM and 0.125 mM in saline. Those dilutions were added as treatment to the 96 well plates with the grown biofilm (see method 3).
(§2) Frozen aliquots of Staphylococcus epidermis ATCC 35984 and Pseudomonas aeruginosa ATCC 27853 were used to inoculate a tryptic soy agar (TSA) plate and incubated overnight at 37° C. After incubation 3-5 well-isolated colonies with the same morphology were selected from the TSA plate and resuspended in 2 mL 0.9% saline solution with 3-6 glass beads and vortexed. The optical density at 600 nm (OD600) of the bacterial suspension was measured with a spectrophotometer (Evolution™ 201/220 UV-Visible Spectrophotometer, Thermo Fisher Scientific) and diluted to an OD600 of 0.0008, which resembles 10^6 CFU/mL.
(§3) The MIC assay was performed in a flat-bottom 96-microtiter plate. 50 μL of MHB-II was added into columns 2-11, and 100 μL to column 12 for sterility control. 100 μL of the 8 mM test compound solution (method 1) was added to column 1. A two-fold dilution series of the solution in MHB-II was achieved by resuspending 50 μL of the 8 mM solution from column 1 to column 2. This step was repeated until column 10. The respective concentration of Tween 80 and DMSO in column 1 was 2.5%, which is two-fold diluted throughout the plate. 50 μL of the bacterial suspension was added to column 1-11. The microtiter plates were sealed with adhesive polyethylene film for sealing microplates (Diversified Biotech) and incubated for 24 h at 37° C. After incubation the OD was measured at 600 nm with the Varioskan (Thermo Fisher Scientific). […] This assay was repeated three times in three independent experiments.

[2] = system: Staphylococcus epidermis ATCC 35984 biofilm; test: MBEC assay (biofilm eradication, CFU log reduction); type: cell-based, S. epidermidis; settings: 48 h grown biofilm, 20 h treatment, CFU log reduction vs untreated
Method: as §1
(§4) Frozen aliquots of Staphylococcus epidermis ATCC 35984 and Pseudomonas aeruginosa ATCC 27853 were used to inoculate 20 mL of Tryptic Soy Broth (TSB) in a 100 mL Erlenmeyer flask at 37° C. and 150 rpm and incubated overnight (Infors). The OD600 of the overnight culture was measured with a spectrophotometer (Evolution™ 201/220 UV-Visible Spectrophotometer, Thermo Fisher Scientific) and diluted to an OD600 of 0.2, which resembles 10^8 CFU/mL. The cell suspension of OD600=0.2 was seeded into a U-bottom-shaped 96 well plates by pipetting 100 μL per well in column 1-11, column 12 was filled with 100 μL medium as sterility control. The 96 well plates were sealed with adhesive polyethylene film for sealing microplates and incubated for 48 h at 37° C. at static conditions. After the biofilm growth phase, 100 μL of treatment solutions (method 1) were added to the vials resulting in treatment concentrations of 1 mM, 0.5 mM, 0.25 mM and 0.125 mM and with the respective concentration of Tween 80 and DMSO each at 0.63%, 0.32%, 0.16% and 0.08%. The same concentration was applied to four different wells of the same bacterial strain, resulting in four replicates for each concentration and strain. The treatment was incubated for 20 h at 37° C. at static conditions. After the treatment the supernatant was carefully removed and the well with the biofilm washed carefully for one time with 200 μL 0.9% saline solution. 200 μL saline solution was added and the biofilm was resuspended thoroughly. When fully homogenized then 20 μL was used for the first dilution in 180 μL 0.9% saline solution, which was prepared in a second plate. This dilution was continued until dilution step 10E−5 and 100 μL of the 10E−4 and 10E−5 dilution plated on a TSA plate. The TSA plates were incubated at 37° C. for 24 h. The colonies on the plates were enumerated, the colony forming units per mL of the dispensed biofilm and averages thereof and the log reduction in comparison with the untreated sample from the same wells plate calculated. Reduction of colony forming units goes hand in hand with the thickness of the biofilm and thus with the number bacteria that are present in the biofilm. Therefore, a significant reduction of colony forming units in the biofilm was defined at the value of log reduction ≥1 or more. This assay was repeated two times in two independent experiments)

[3] = system: Staphylococcus epidermis ATCC 35984; test: MIC assay (planktonic growth inhibition, OD600); type: cell-based, S. epidermidis; settings: 24 h at 37° C.
Method: as §1, §2, §3

[4] = system: cows with a SCC of more as 250.000 cells/ml; test: In vivo mastitis test: somatic cell count (SCC) in milk after a single oral tablet; design: species or system cow; settings: single oral tablet (10 g), 60 days, FIG. 1
Method: Experiments were performed to examine the effect of compounds on the cell count or somatic cell count (SCC) in milk.
Somatic cell counts (SCC) is related to the amount of pathogens that are in the quarter visible for the immune system. The cell count of each cow was measured with the milk production registration (MPR). This MPR is done periodically every 30-40 days at all farms. The Somatic Cell Count (SCC) is a main indicator of milk quality. The majority of somatic cells are leukocytes (white blood cells)—which become present in increasing numbers in milk usually as an immune response to a mastitis-causing pathogen—and a small number of epithelial cells, which are milk-producing cells shed from inside of the udder when an infection occurs.
The SCC data was extracted from milk production registrations (MPRs). MPRs are databases showing all details (e.g. SCC) of the produced milk per individual cow. MPRs of the selected farms were available periodically. SCC is quantified as the number of cells per ml of milk. In general terms: an individual cow with a value for SCC of 100,000 or less indicates an ‘uninfected’ cow and there were no significant production losses due to subclinical mastitis. A threshold SCC above 250,000 indicates infection and counts between 100,000 to 250,000 indicate a high risk of infection.
The experiments were performed on a farm with 90 cows. Examination was performed on cell count with the above described tablets during 60 days.
Cows with a SCC of more as 250.000 cells/ml before treatment were selected for administration of a single tablet.

udder cleft wound = test: In vivo udder cleft dermatitis test: wound assessment after spray treatment; design: species or system cow
Method: An example of a biofilm-related disorder is Udder Cleft Dermatitis (UCD), which relates to a chronic wound. In this Example, di-alkyl thiosulfonates, dialkyl thiosulfinates and di-alkyl disulfides were tested for their effect on cows affected by UCD.
Experiments were performed to examine the effect of various sprays containing water (control), a test compound, or a reference compound (CTC spray, which contains chlorotetracycline hydrochloride, and was obtained from Dechra veterinary products).
0.35 mL of the spray was sprayed on an udder cleft wound per treatment. Treatments took place once a day at t=0, at t=3 days and t=6 days. In Table 6, the assessment qualifications that are used in Table 7, are explained.

[5] = system: Pseudomonas aeruginosa ATCC 27853 biofilm; test: MBEC assay (biofilm eradication, CFU log reduction); type: cell-based, P. aeruginosa; settings: 48 h grown biofilm, 20 h treatment, CFU log reduction vs untreated
Method: as §1, §4

O=[SH](O)=S.c1ccc(-c2ccccc2)cc1 [Di-phenyl thiosulfonate, phenyl benzene thiosulfonate]
MIC50 ([1]; minimal concentration reducing final OD600 by 50%, read-out: P. aeruginosa MIC50): 2000 µM | MIC90 ([1]; minimal concentration reducing final OD600 by 90%, read-out: P. aeruginosa MIC90): 2000 µM | S. epidermidis MBEC mM with log reduction ≥1 [2]: 2 mM | MIC50 ([3]; minimal concentration reducing final OD600 by 50%, read-out: S. epidermidis MIC50): 1000 µM | MIC90 ([3]; minimal concentration reducing final OD600 by 90%, read-out: S. epidermidis MIC90): 2000 µM | somatic cell count (SCC) of milk [4]: significantly decreased | inflammation of the udder cleft wound after treatment (udder cleft wound; immediately after the treatment, later infection reduced and wound healed): fast inflammation reduction | Conclusion (effect on udder cleft wound) (udder cleft wound; over 60 days, all cows of the group): Positive effect | P. aeruginosa MBEC mM with log reduction ≥1 [5]: >4 mM
